Assays:
[1] = target: Beta-1 adrenergic receptor (Homo sapiens, UniProt P08588)
Description: Agonist activity at human beta1 adrenoceptor expressed in HEK293 cells assessed as induction of accumulation of cAMP by HTRF assay

[2] = target: Beta-2 adrenergic receptor (Homo sapiens, UniProt P07550)
Description: Agonist activity at human beta2 adrenoceptor expressed in HEK293 cells assessed as induction of accumulation of cAMP by HTRF assay

[3] = system: Trachea; experiment: Induction of smooth muscle relaxation in male Dunkin-Hartley guinea pig trachea strips assessed as maximal relaxation of histamine phosphate-induced guinea pig airway smooth muscle contraction relative to control; details: Cavia porcellus

Sequence of Beta-2 adrenergic receptor (P07550 whole entry): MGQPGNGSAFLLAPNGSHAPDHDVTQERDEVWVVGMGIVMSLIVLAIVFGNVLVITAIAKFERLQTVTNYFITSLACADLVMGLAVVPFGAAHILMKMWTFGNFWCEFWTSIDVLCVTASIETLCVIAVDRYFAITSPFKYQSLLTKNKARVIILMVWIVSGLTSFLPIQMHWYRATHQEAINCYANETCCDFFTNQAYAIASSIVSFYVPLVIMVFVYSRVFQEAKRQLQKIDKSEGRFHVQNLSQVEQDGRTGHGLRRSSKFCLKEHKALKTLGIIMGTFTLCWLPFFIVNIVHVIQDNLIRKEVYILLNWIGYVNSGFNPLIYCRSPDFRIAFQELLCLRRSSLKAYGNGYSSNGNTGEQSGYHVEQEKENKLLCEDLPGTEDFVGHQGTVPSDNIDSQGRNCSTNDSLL
Sequence of Beta-1 adrenergic receptor (P08588 whole entry): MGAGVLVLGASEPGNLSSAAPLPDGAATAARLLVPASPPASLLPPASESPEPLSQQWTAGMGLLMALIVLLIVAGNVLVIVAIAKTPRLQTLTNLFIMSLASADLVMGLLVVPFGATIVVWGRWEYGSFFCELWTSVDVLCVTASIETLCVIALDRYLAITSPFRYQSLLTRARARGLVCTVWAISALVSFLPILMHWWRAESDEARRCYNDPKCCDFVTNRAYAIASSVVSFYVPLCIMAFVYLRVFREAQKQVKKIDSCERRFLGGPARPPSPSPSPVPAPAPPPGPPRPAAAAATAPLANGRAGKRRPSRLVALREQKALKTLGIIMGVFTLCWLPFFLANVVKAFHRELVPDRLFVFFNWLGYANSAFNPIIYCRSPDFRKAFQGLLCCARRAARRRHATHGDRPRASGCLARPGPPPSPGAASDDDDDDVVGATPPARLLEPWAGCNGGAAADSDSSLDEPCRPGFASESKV

Row | SMILES | EC50 [1] [nM] | EC50 [2] [nM] | Emax [3] [%]
1 | O=C1COc2c(C(O)CNCCCCc3ccccc3)ccc(O)c2N1 (stereo unspecified) | 0.309 |  | 
2 | Cc1ccccc1CCNCC(O)c1ccc(O)c2c1OCC(=O)N2 (stereo unspecified) | 0.912 | 0.0282 | 135
3 | Cc1ccccc1CCCNCC(O)c1ccc(O)c2c1OCC(=O)N2 (stereo unspecified) | 0.324 |  | 
4 | CCCCCCNCC(O)c1ccc(O)c2c1OCC(=O)N2 (stereo unspecified) | 2.19 |  | 
5 | O=C1COc2c(C(O)CNCCCc3ccccc3)ccc(O)c2N1 (stereo unspecified) | 0.257 | 0.00589 | 237
6 | CC(C)(C)NCC(O)c1ccc(O)c2c1OCC(=O)N2 (stereo unspecified) | 2.14 |  | 
7 | O=C1COc2c(C(O)CNCCc3cccc(Cl)c3)ccc(O)c2N1 (stereo unspecified) | 3.72 | 0.0269 | 65.3
8 | O=C1COc2c(C(O)CNCCc3ccc(Cl)cc3)ccc(O)c2N1 (stereo unspecified) | 1000 | 1.32 | 86.7
9 | COc1ccc(CCCNCC(O)c2ccc(O)c3c2OCC(=O)N3)cc1 (stereo unspecified) | 0.513 | 0.0038 | 74.2
10 | COc1ccc(CC(C)(C)NC[C@H](O)c2cc(O)cc3c2OCC(=O)N3)cc1 [OLODATEROL] | 33.9 |  | 
11 | COc1cc(CCCNCC(O)c2ccc(O)c3c2OCC(=O)N3)cc(OC)c1OC (stereo unspecified) | 1.58 | 0.0537 | 142
12 | O=C1COc2c(C(O)CNC3CC3)ccc(O)c2N1 (stereo unspecified) | 1.32 | 0.0224 | 123
13 | O=C1COc2c(C(O)CNCCCc3ccc(C(F)(F)F)cc3)ccc(O)c2N1 (stereo unspecified) | 1.2 | 0.0055 | 132
14 | O=C1COc2c(C(O)CNCCCc3cc(F)cc(F)c3)ccc(O)c2N1 (stereo unspecified) | 0.105 |  | 
15 | O=C1COc2c(C(O)CNCCCc3ccccc3O)ccc(O)c2N1 (stereo unspecified) | 0.129 |  | 
16 | Cc1ccc(CCCNCC(O)c2ccc(O)c3c2OCC(=O)N3)cc1 (stereo unspecified) |  | 0.00759 | 
17 | O=C1COc2c(C(O)CNCCCc3cccc(C(F)(F)F)c3)ccc(O)c2N1 (stereo unspecified) | 0.513 |  | 
18 | O=C1COc2c(C(O)CNCCc3ccccc3Cl)ccc(O)c2N1 (stereo unspecified) | 5.37 |  | 
19 | Cc1cccc(CCCNCC(O)c2ccc(O)c3c2OCC(=O)N3)c1 (stereo unspecified) | 0.245 |  | 
20 | O=C1COc2c(C(O)CNCCOc3ccccc3)ccc(O)c2N1 (stereo unspecified) | 1.7 |  | 

Reference: ChEMBL document CHEMBL5528055, “Discovery and Identification of Novel 5-Hydroxy-4H-benzo[1,4]oxazin-3-one Derivatives as Potent β2-Adrenoceptor Agonists through Structure-Based Design, Synthesis, and Biological Evaluation” (J Med Chem, 2024)
